Here are results for 3 compounds from patent US11952356B2, “Crystalline form of 1,4-bis[1,2-benzisoselenazol-3(2H)-one]-butane, method for preparing same and use thereof” (SHANGHAI YUANXI MEDICINE CORP., priority 2019, dated 2024).

Data set [1] relates to HBV. Kind of data set: HBeAg assay in culture supernatant. It counts as cell-based. The method, then: (§1) Cell plating: HepAD38 cells were seeded in 24-well plates at a density of 8×10^4 cells/well, each well containing 500 μL of culture medium. Treatment: 9 h after plating, the cells were observed. […] The cells were cultured for 48 h, washed with PBS twice, added with the above drugs, and cultured for another 48 h. After the 48 h, the supernatant was collected, and HBV DNA, HBsAg, and HBeAg in the supernatant were detected. HBV DNA was preferentially determined.
HBsAg and HBeAg assays in culture supernatant: The assay was time-resolved immunofluorescence (ELISA) according to HBsAg and HBeAg assay kits of PE Corporation.
After 48 h, 1 mL of cell culture supernatant was collected for detecting HBsAg and HBeAg. The cells were washed at least 5 times with PBS. 1 mL of the last PBS washings was collected and used as the baseline for determining whether the plasmids were washed away. Note: when washing the cells, PBS was slowly added into the dish along the wall of the dish without resuspending the cells. The dish was then gently shaken to wash the cells, and the residual PBS was discarded after each washing to minimize the plasmid residues.

Data set [2] can be described thus: Grinding test, crystalline form by XRD. Format: physicochemical.
A short description of data set [3]: Stability test of crystalline form I (XRD after storage). Format: physicochemical. To be noted: 40° C./75% relative humidity and 60° C., 3 to 7 days.
In data set [4] the test system is H22 cells. Kind of data set: Tumor inhibitory activity assay in H22 mice. It counts as in vivo, mouse. The conditions noted are these: 180 mg/kg once daily oral gavage; for Tumor growth inhibition: n=10. The method, then:
After 2 days of acclimation, qualified animals were randomized into 4 groups with 10 animals each. On day 0, H22 cells were grafted at 1×10^4/mouse subcutaneously at the right axilla. The treatment started at 24 h after grafting. Long and short diameters of tumor were recorded daily and the tumor size was calculated according to the formula: long diameter×short diameter^2×0.5236. The body weight was measured every 2 days. After 21 days of treatment, blood was collected from eyeballs after chloral hydrate anesthesia. The mice were sacrificed and tumors were collected quickly.

Data set [5] concerns HBV. Kind of data set: HBV RNA assay in cell culture supernatant. Format: cell-based. On the procedure:
as §1
(§2) Procedures for determining HBV DNA, HBV RNA, HBsAg and HBeAg in cell culture supernatant are as follows:
(§3) The cells were transferred to a larger culture dish, and cultured in a culture medium for 3 days. 1 mL of cell supernatant was collected for detecting HBV DNA and HBV RNA. If the detection was not timely performed, the samples were stored at −20° C.
(§4) 1 mL of collected cell culture supernatant and the last PBS washings collected at 48 h were centrifuged at 5000 rpm for 5 min. 200 μL of the supernatant after centrifugation was added to 5 μL of DNaseI+5 μL of DNasel buffer, well mixed and subjected to instantaneous centrifugation. The supernatant was incubated for 1 h at 37° C., mixed once every 30 min, and subjected to instantaneous centrifugation. After 1 h, 5 μL of EDTA was added and the system was incubated at 65° C. for 10 min before the DNaseI reaction was terminated.
(§5) 200 μL of HBV nucleic acid in cell supernatant was concentrated into a system of 20 μL by using a TransGene's HBV nucleic acid extraction kit.
(§6) The supernatant HBV DNA level and the baseline level of plasmid in PBS after DNase treatment were measured by real-time PCR. After reverse transcription of HBV RNA into cDNA, real time PCR was performed to detect the level.
(2) cDNA quantitative system after reverse transcription of HBV RNA: […]

Data set [6] deals with hepatic fibrosis animal model. Kind of data set: CCl4-induced hepatic fibrosis animal model. It counts as in vivo, Balb/c mice. The conditions noted are these: for average body weight / ALB (serum) / ALP (serum) / ALT (serum) / AST (serum) / TGF (serum) / TP (serum) / TrxR1 (serum): end of study; for ALB (serum) / ALP (serum) / ALT (serum) / AST (serum) / TGF (serum) / TP (serum) / TrxR1 (serum): model group = 1.00. The method, then:
Animals: Balb/c inbred mice, male, six weeks old, purchased from Peking University, Health Science Center, Department of Laboratory Animal Science, with license number SCXK(Jing)2016-0010. The breeding environment was clean. The accommodation temperature was 25±2° C. The mice were bred in 12-hour light/darkness cycle, and had sufficient food and water supply.
After being prepared into a solution or suspension, the compound was administered to the mice at a dose of 5 mL/Kg.
20 male Balb/c mice aged 6 weeks were randomized into 4 groups. After a staged gradient induction using 25% CCl4 for 4 weeks (three times a week), the treatment started in the BSL (90 mg/kg) group and the BSM (180 mg/kg) group once a day, and the control group and model group were administered with 5‰ CMC-Na solution. After 8 weeks of induction, the mice were sacrificed and the blood was collected and centrifuged at 3000 rpm for 15 min to give the serum for detecting TGF-β1, TrxR1, AST, ALT, ALP, TP and the expression (hepatic fibrosis animal model is shown in FIG. 6). Part of liver was fixed with 4% paraformaldehyde, and subjected to immunohistochemical HE staining and Masson staining. Expressions of α-SMA and Collagen I in liver tissue were detected immunohistochemically. Part of liver was preserved in liquid nitrogen.

Data set [7] concerns HBV. Kind of data set: HBV DNA assay in HepAD38 culture supernatant. It counts as cell-based. The conditions noted are these: for Supernatant HBV DVA level: HepAD38 cells. On the procedure:
as §1
HBV DNA assay in culture supernatant: According to TransGen's Viral Nucleic Acid Extraction kit, the nucleic acid was extracted and by SYBR green qPCR, the viral DNA load was determined.
as §2, §3, §4, §5, §6

Where [8] appears, read: BSL and BSM groups vs model group.

Molecules are shown by their SMILES. Like-named read-outs stand apart in the source and are kept apart here.

On to `O=c1c2ccccc2[se]n1CCCCn1[se]c2ccccc2c1=O` [Crystalline form I, 1,4-BIS[1,2-BENZISOSELENAZOL-3(2H)-one]-butane], for which the figures for the “Supernatant HBeAg level” value in data set [1] (0.5 μM), in data set [1] (1.0 μM) and in data set [1] (5.0 μM) were 22%, 17% and 43.1%^, respectively. Besides, the “Inhibition effect on supernatant HBeAg” value in data set [1] (summary in words) is “good inhibition effect”. The “Crystalline form after grinding (XRD)” value in data set [2] (listed as Example 1) is “Crystalline form I”. Further, in data set [3], the “XRD pattern after storage” value is on record as “unchanged”. Further, in data set [4] (after 21 days of treatment), the Mean tumor weight is given as 138.33 mg. The “Tumor growth inhibition (tumor weight)” value in data set [4] (after 21 days of treatment) was 88.70%; in data set [4] (after 21 days of treatment, listed as crystalline form I) it was “up to 88.7%”. Besides, the Tumor growth inhibition in data set [4] (day 9, tumor size) is on record as 70.42%; in data set [4] (day 10, tumor size), 78.32%; in data set [4] (day 11, tumor size), 76.31%; in data set [4] (day 12, tumor size) it was 78.27%; in data set [4] (day 13, tumor size), 76.03%; in data set [4] (day 14, tumor size), 72.24%. In addition, the Tumor growth inhibition in data set [4] (day 15, tumor size) is reported as 65.74%; in data set [4] (day 16, tumor size), 76.97%; in data set [4] (day 17, tumor size), 78.21%; in data set [4] (day 18, tumor size) it was 82.33%; in data set [4] (day 19, tumor size), 87.15%; in data set [4] (day 20, tumor size), 88.49%. In data set [4] (day 21, tumor size), the Tumor growth inhibition was 86.67%. Further, the “Supernatant HBV RNA level” value was found to be 48% in data set [5] (0.5 μM), 42% in data set [5] (1.0 μM) and 43% in data set [5] (5.0 μM). Further, the average body weight in data set [6] (BSL 90 mg/kg once a day, n ≥ 4) worked out at 17 g; in data set [6] (BSL 90 mg/kg), 17.00 ± 0.68 g; in data set [6] (BSM 180 mg/kg once a day, n ≥ 4) it was 18 g; in data set [6] (BSM 180 mg/kg), 18.04 ± 2.23 g. Besides, the “ALB (serum)” value in data set [6] (BSL 90 mg/kg) was 1.83; in data set [6] (BSM 180 mg/kg) it was 1.47. The “ALP (serum)” value in data set [6] (BSL 90 mg/kg) was found to be 0.82; in data set [6] (BSM 180 mg/kg), 0.73. Also, the “ALT (serum)” value turned out to be 0.48 in data set [6] (BSL 90 mg/kg) and 0.39 in data set [6] (BSM 180 mg/kg). The “AST (serum)” value in data set [6] (BSL 90 mg/kg) worked out at 0.29; in data set [6] (BSM 180 mg/kg), 0.27. In addition, the “TGF (serum)” value in data set [6] (BSL 90 mg/kg) is 0.76; in data set [6] (BSM 180 mg/kg), 0.85. The “TP (serum)” value in data set [6] (BSL 90 mg/kg) was 1.35; in data set [6] (BSM 180 mg/kg) it was 1.36. Also, the “TrxR1 (serum)” value in data set [6] (BSL 90 mg/kg) was found to be 0.82; in data set [6] (BSM 180 mg/kg), 0.89. In data set [6] (setting [8]), the “Collagen1 expression in liver (staining)” value is listed as “significantly reduced”. For the same compound, the “HE staining: symptoms of hepatocyte necrosis and inflammation” value in data set [6] (setting [8]) was “significantly reduced”. In data set [6] (setting [8]), the “Masson staining: fibrosis symptoms” value was “gradually relieved”. For the same compound, the “α-SMA expression in liver (staining)” value in data set [6] (setting [8]) is “significantly reduced”. For the same compound, the “Liver surface symptoms (roughness, granular sensation)” value in data set [6] (treatment groups (BSL 90 mg/kg, BSM 180 mg/kg) vs model group) is recorded as “improved”. Besides, the results for the “Supernatant HBV DVA level” value in data set [7] (0.5 μM), in data set [7] (1.0 μM) and in data set [7] (5.0 μM) were 62%, 63% and 70%, respectively. The “Inhibition effect on HBV DNA” value in data set [7] (summary in words) was “good inhibition effect”.
Consider `O=c1c2ccccc2[se]n1CCCCn1[se]c2ccccc2c1=O` [Crystalline form I-a, 1,4-BIS[1,2-BENZISOSELENAZOL-3(2H)-one]-butane], for which the “Crystalline form after grinding (XRD)” value was “crystalline form I” in data set [2], “Crystalline form I” in data set [2] (listed as Comparative Example 1), “Crystalline form I” in data set [2] (listed as Comparative Example 2) and “Crystalline form I” in data set [2] (listed as Comparative Example 3).
Consider `C=C1[C@H](CO)[C@@H](O)C[C@@H]1n1cnc2c(=O)[nH]c(N)nc21` [ETV, entecavir, reference compound], for which the “Supernatant HBeAg level” value in data set [1] (ETV concentration not given) came out at 36.8%. Also, the “Supernatant HBV DVA level” value in data set [7] (ETV concentration not given) is given as 80%.
